We go through eleven compounds from ChEMBL document CHEMBL1201862, “PubChem BioAssay data set” (2004).

Among the test systems are NCI-H23; IGROV-1; HT-29; COLO 205; HOP-92; UACC-62; OVCAR-8; MCF7; SN12C; HCT-116; NCI-H460; NCI-H226; MDA-MB-435; A498; BT-549; EKVX; OVCAR-4; SF-539; NCI-H522; PC-3.
Common to all, as to assay: NCI anticancer screen, dose series, 48 h

Structures are written as SMILES.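 Where inhibition never reached the appropriate level, the endpoint shown equals the highest concentration tested. Otherwise, values were interpolated linearly from a five-concentration, 48-hour dose response in 96-well plates. At the GI50, growth is halved.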 The source made the active and inactive calls. Rule as the data show it: active = GI50 up to about 1.1 µM and inactive = higher.

For the compound `COc1ccc(-c2cc(=O)c3c(OC)c(OC)c(OC)cc3o2)cc1`, the GI50 with NCI-H23 is 40.6 µM (inactive); in the test with IGROV-1, 37.9 µM (inactive); in the test on HT-29, 28.4 µM (inactive); in the test on COLO 205 it was 22.1 µM (inactive); in the test with HOP-92, 20.6 µM (inactive); with UACC-62, 27.5 µM (inactive). Further, the GI50 is 35.2 µM (inactive) in the test on OVCAR-8; 37.4 µM (inactive) with MCF7; 25.2 µM (inactive) in the test with SN12C; 32.6 µM (inactive) in the test with HCT-116; 24 µM (inactive) with NCI-H460; 27 µM (inactive) in the test with NCI-H226. Also, the GI50 with MDA-MB-435 is 32.2 µM (inactive); in the test on A498, 19.8 µM (inactive); in the test with BT-549 it was 31.7 µM (inactive); in the test with EKVX it was 37.4 µM (inactive); in the test on OVCAR-4, 24.2 µM (inactive); with SF-539, 81.8 µM (inactive). For the same compound, the GI50 in the test with NCI-H522 was 23.7 µM (inactive).
Take `COC(=O)/C=C(/C=C1/C(C#N)=C(N)N(c2ccc(Cl)cc2)C1(C)/C(=C/C(=O)OC)C(=O)OC)C(=O)OC` (configuration not stated): the GI50 with NCI-H23 was 42.3 µM (inactive); with IGROV-1, 27.6 µM (inactive); in the test on HT-29, 33.4 µM (inactive); in the test on COLO 205 it was 25.1 µM (inactive); in the test with HOP-92, 42.3 µM (inactive); in the test on UACC-62, 19.6 µM (inactive). Further, the GI50 is 33.5 µM (inactive) in the test on OVCAR-8; 78.3 µM (inactive) with MCF7; 34.6 µM (inactive) with PC-3; 35.8 µM (inactive) in the test on SN12C; 28.9 µM (inactive) with HCT-116; 40.6 µM (inactive) in the test on NCI-H460. In addition, the GI50 with MDA-MB-435 is 52.4 µM (inactive); in the test on A498 it was 49.5 µM (inactive); with EKVX, 46.1 µM (inactive); in the test on OVCAR-4, > 100 µM (inactive); with SF-539 it was > 100 µM (inactive); with NCI-H522, 33.2 µM (inactive).
Turning to `CN1/C(=C/C=C/C=C/C=C2C(=O)c3ccccc3C2=O)C(C)(C)c2ccccc21`, the GI50 in the test on NCI-H23 was 41 µM (inactive); in the test with IGROV-1, 39.6 µM (inactive); with HT-29 it was > 100 µM (inactive); in the test on COLO 205, 26.6 µM (inactive); in the test on HOP-92, 15.7 µM (inactive); in the test on UACC-62, 17.7 µM (inactive). In addition, the GI50 in the test on OVCAR-8 is 44 µM (inactive); in the test on MCF7, 31.3 µM (inactive); in the test on SN12C, > 100 µM (inactive); in the test with HCT-116, > 100 µM (inactive); in the test with NCI-H460 it was 53.5 µM (inactive); with NCI-H226 it was 51.9 µM (inactive). The GI50 in the test on MDA-MB-435 is 54.5 µM (inactive); in the test with A498, 23.8 µM (inactive); in the test on BT-549 it was 24 µM (inactive); with EKVX, 30.8 µM (inactive); in the test with OVCAR-4, 75.3 µM (inactive); with SF-539, 26.1 µM (inactive). In addition, the GI50 with NCI-H522 was 28.6 µM (inactive).
With `CC1(C)c2ccccc2C(=O)C12CCC(=O)CC2`, the GI50 in the test with NCI-H23, with IGROV-1, with HT-29, in the test on COLO 205, with UACC-62 and in the test with OVCAR-8 was > 100 µM (inactive) in each case. The GI50 in the test with MCF7, in the test with PC-3, in the test on SN12C, with HCT-116, in the test with NCI-H460 and in the test with NCI-H226 was > 100 µM (inactive) in each case. In addition, the GI50 in the test on BT-549, in the test with EKVX, in the test on OVCAR-4, in the test with SF-539 and in the test on NCI-H522 was > 100 µM (inactive) throughout.
In the case of `Cc1cc(C)c2c(-c3ccccc3)cc(=O)[nH]c2c1`, the GI50 in the test on NCI-H23, with IGROV-1, with HT-29, with COLO 205, in the test on UACC-62 and with OVCAR-8 was > 100 µM (inactive) in each case. Besides, the GI50 in the test on MCF7, in the test with PC-3, in the test with SN12C, in the test with HCT-116, in the test on NCI-H460 and in the test on NCI-H226 was > 100 µM (inactive) throughout. Besides, the GI50 with MDA-MB-435, in the test on A498, in the test on EKVX, in the test on OVCAR-4 and with NCI-H522 was > 100 µM (inactive) throughout.
As for `COc1cc(OCc2ccc3nc(-c4ccccc4)c(Cl)nc3c2)cc(OC)c1OC`, the GI50 is 40.3 µM (inactive) with NCI-H23; 69.2 µM (inactive) with IGROV-1; > 100 µM (inactive) in the test on HT-29; > 100 µM (inactive) in the test on COLO 205; 8.71 µM (inactive) with HOP-92; 83.2 µM (inactive) in the test with UACC-62. Also, the GI50 is > 100 µM (inactive) in the test on OVCAR-8; 59.7 µM (inactive) in the test with MCF7; > 100 µM (inactive) in the test on PC-3; > 100 µM (inactive) in the test on SN12C; 76.6 µM (inactive) in the test with HCT-116; 90.2 µM (inactive) with NCI-H460. Also, the GI50 in the test with MDA-MB-435 is > 100 µM (inactive); in the test with A498, 32.5 µM (inactive); in the test on EKVX, 59.2 µM (inactive); in the test with OVCAR-4, > 100 µM (inactive); in the test on SF-539, 31.2 µM (inactive); in the test on NCI-H522 it was 33.3 µM (inactive).
With `COc1cc([C@@H]2c3cc4c(cc3[C@@H](NCCNCCO)[C@H]3COC(=O)[C@H]23)OCO4)cc(OC)c1O`, the GI50 with NCI-H23 was 1.08 µM (active); in the test with IGROV-1 it was 1.3 µM (inactive); with HT-29, 2 µM (inactive); in the test with COLO 205 it was 2.42 µM (inactive); with UACC-62 it was 0.601 µM (active); with OVCAR-8, 1.81 µM (inactive). In addition, the GI50 in the test on PC-3 was 3.78 µM (inactive); in the test on HCT-116, 2 µM (inactive); in the test with NCI-H460, 0.0951 µM (active); in the test on NCI-H226 it was 1.37 µM (inactive); in the test with MDA-MB-435 it was 9.44 µM (inactive); in the test on A498, 3.85 µM (inactive). For the same compound, the GI50 is 2.14 µM (inactive) with BT-549 and 14.4 µM (inactive) in the test with OVCAR-4.
Regarding `COc1cc(OC)cc(-n2c(N)c(-c3nc4ccccc4s3)c3ccc([N+](=O)[O-])cc3c2=O)c1`, the GI50 was 77.4 µM (inactive) with NCI-H23; > 100 µM (inactive) with HT-29; 30.4 µM (inactive) with COLO 205; 3.27 µM (inactive) in the test on HOP-92; > 100 µM (inactive) with UACC-62; 13.3 µM (inactive) in the test on OVCAR-8. Further, the GI50 was > 100 µM (inactive) in the test with MCF7; 18.4 µM (inactive) in the test on SN12C; 24.9 µM (inactive) in the test with HCT-116; 32.7 µM (inactive) with NCI-H460; 25.7 µM (inactive) in the test on NCI-H226; > 100 µM (inactive) with MDA-MB-435. For the same compound, the GI50 in the test with A498 is 28.4 µM (inactive); in the test on BT-549, > 100 µM (inactive); with OVCAR-4 it was 17 µM (inactive); with SF-539 it was 13.4 µM (inactive); in the test on NCI-H522 it was 23.9 µM (inactive).
On to `CCSC1=N/C(=C\c2ccco2)C(Nc2ccc(C)cc2)=N1`, for which the GI50 is > 100 µM (inactive) in the test with NCI-H23; 60.5 µM (inactive) in the test on IGROV-1; > 100 µM (inactive) with HT-29; > 100 µM (inactive) with COLO 205; > 100 µM (inactive) with HOP-92; > 100 µM (inactive) with UACC-62. In addition, the GI50 in the test with OVCAR-8, in the test with MCF7, in the test on PC-3, in the test on SN12C, in the test with HCT-116 and in the test on NCI-H226 was > 100 µM (inactive) throughout. Also, the GI50 in the test on MDA-MB-435, with A498, in the test on EKVX and in the test on NCI-H522 was > 100 µM (inactive) in each case.
`COc1cc2c(oc(=O)c3c4occc4cc(OC)c23)c2cccc(O)c12`: the GI50 with NCI-H23, in the test with IGROV-1, with HT-29, with COLO 205, in the test on HOP-92 and in the test with UACC-62 was > 100 µM (inactive) each time. For the same compound, the GI50 with OVCAR-8, with SN12C, in the test with HCT-116, in the test with NCI-H460, in the test on NCI-H226 and in the test on A498 was > 100 µM (inactive) each time. Moreover, the GI50 with EKVX, in the test with OVCAR-4, in the test with SF-539 and with NCI-H522 was > 100 µM (inactive) each time.
In the case of `CC(=O)c1cccc(NCn2nnc3ccccc32)c1`, the GI50 with NCI-H23, in the test on IGROV-1, in the test on HT-29, in the test on COLO 205, in the test with HOP-92 and with UACC-62 was > 100 µM (inactive) each time. In addition, the GI50 in the test on OVCAR-8, in the test on SN12C, in the test on HCT-116, with NCI-H460, in the test with NCI-H226 and in the test on A498 was > 100 µM (inactive) in each case. Besides, the GI50 in the test with EKVX, in the test on OVCAR-4, in the test with SF-539 and in the test with NCI-H522 was > 100 µM (inactive) in each case.
